This note sets out measurements from ChEMBL document CHEMBL1201862, “PubChem BioAssay data set” (2004).

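1) Cells in 96-well plates. 2) Compound, 48 h, 5 concentrations. 3) Linear interpolation between surrounding doses. 4) Unreached endpoint = highest concentration. GI50 is the concentration that inhibits growth by half.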 The source made the active and inactive calls. No stated cut-off is given here; in the data, active = GI50 up to about 1.1 µM and inactive = higher.

Holding throughout (assay): NCI tumour cell line growth inhibition, 48 h
Experiment [1] concerns MCF7.
The subject of experiment [2] is K562.
Experiment [3] has as its system HT-29.
In experiment [4] the test system is CAKI-1.
The test system of experiment [5] is CCRF-CEM.
In experiment [6] the test system is Hs-578T.
For experiment [7], the system named is HOP-62.
For experiment [8], the system named is MDA-MB-231.
Experiment [9] concerns SF-268.
Experiment [10] has as its system LOX IMVI.
Experiment [11] deals with HCT-116.
Experiment [12] relates to PC-3.
Experiment [13] deals with UACC-62.
For experiment [14], the system named is UACC-257.
The subject of experiment [15] is SNB-19.
The subject of experiment [16] is NCI-H460.
The subject of experiment [17] is SF-295.
In experiment [18] the test system is MOLT-4.
The test system of experiment [19] is SK-OV-3.
Experiment [20] deals with OVCAR-8.

`CNC(=O)C1CCC(=O)N1CN(C(C)=O)c1ccccc1` (stereo not given): the GI50 in [1] is > 100 µM (inactive); in [2], > 100 µM (inactive); in [3] it was > 100 µM (inactive); in [4] it was > 100 µM (inactive); in experiment [5] it was 0.0471 µM (active); in [6] it was > 100 µM (inactive). The GI50 in experiment [7], in experiment [8], in [9], in experiment [10], in experiment [11] and in experiment [12] was > 100 µM (inactive) in each case. For the same compound, the GI50 in [13], in experiment [14], in experiment [15], in experiment [16], in [17] and in experiment [18] was > 100 µM (inactive) throughout. Besides, the GI50 in experiment [19] and in experiment [20] was > 100 µM (inactive) each time.
Turning to `CN(C)CCNc1nc2c(no[n+]2[O-])c2ccccc12.[O-][Cl+3]([O-])([O-])O`, the GI50 was 19.7 µM (inactive) in [1]; 28.8 µM (inactive) in [2]; 27.6 µM (inactive) in experiment [3]; 26.1 µM (inactive) in experiment [4]; 30.3 µM (inactive) in experiment [5]; 40.6 µM (inactive) in experiment [6]. The GI50 in [7] is 13 µM (inactive); in experiment [8], 14.8 µM (inactive); in experiment [9], 4.42 µM (inactive); in experiment [10], 16.8 µM (inactive); in [11], 12.4 µM (inactive); in [12], 28 µM (inactive). The GI50 in experiment [13] is 21 µM (inactive); in [14], 16.8 µM (inactive); in experiment [15] it was 20.7 µM (inactive); in experiment [16], 19.5 µM (inactive); in [17], 28 µM (inactive); in experiment [18], 32.4 µM (inactive). For the same compound, the GI50 was 32.1 µM (inactive) in experiment [19] and 14.6 µM (inactive) in [20].
